From patent US20190031665A1, “DERIVATIVES OF PYRROLOIMIDAZOLE OR ANALOGUES THEREOF WHICH ARE USEFUL FOR THE TREATMENT OF INTER ALIA CANCER” (EMCURE PHARMACEUTICALS LIMITED, priority 2016, published 2019)

Tests used:
[1] = biological target: T1, human indoleamine 2,3-dioxygenase 1 (hIDO1) (Homo sapiens, UniProt P14902); test: In-vitro human indoleamine 2,3-dioxygenase 1 (IDO1) enzyme assay; format: biochemical; settings: for IC50: hIDO1 enzyme; for inhibition at 1 µM: hIDO1 enzyme at 1.0 μM concentration; for inhibition at 10 µM: hIDO1 enzyme at 10.0 μM concentration
T1 construct: His tag (N); purchased BPS Bioscience, San Diego, Calif., USA; host or cells: E. coli
T1 sequence (P14902 whole entry): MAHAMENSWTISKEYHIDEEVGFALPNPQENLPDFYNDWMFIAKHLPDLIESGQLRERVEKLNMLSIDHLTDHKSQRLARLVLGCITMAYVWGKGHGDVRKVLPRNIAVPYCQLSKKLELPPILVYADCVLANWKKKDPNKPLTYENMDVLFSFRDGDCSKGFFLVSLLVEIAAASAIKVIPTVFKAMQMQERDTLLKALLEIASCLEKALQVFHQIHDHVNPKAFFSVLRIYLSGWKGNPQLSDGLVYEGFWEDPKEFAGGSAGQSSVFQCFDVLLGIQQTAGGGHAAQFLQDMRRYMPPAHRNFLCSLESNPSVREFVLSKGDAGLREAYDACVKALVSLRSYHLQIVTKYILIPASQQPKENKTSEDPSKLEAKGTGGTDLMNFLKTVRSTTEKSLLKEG
Summary of the method: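 His-tagged hIDO1 (E. coli, 50 ng) incubated with 80 μM tryptophan, 10 mM ascorbate, 10 μM methylene blue, catalase and 0.01% Tween-20 in 50 mM sodium phosphate pH 6.5, 60 min, 37 °C. Piperidine converts N-formylkynurenine to fluorescent NFK-PIP (ex 400/em 500 nm); IC50 by nonlinear regression.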

[2] = biological target: T2, human tryptophan 2,3-dioxygenase (hTDO) (Homo sapiens, UniProt P48775); test: In-vitro human tryptophan 2,3-dioxygenase (TDO) enzyme assay; format: biochemical; settings: for inhibition at 1 µM: hTDO enzyme at 1.0 μM concentration; for inhibition at 10 µM: hTDO enzyme at 10.0 μM concentration
T2 construct: His tag (N); purchased BPS Bioscience, San Diego, Calif., USA; host or cells: E. coli
T2 sequence (P48775 whole entry): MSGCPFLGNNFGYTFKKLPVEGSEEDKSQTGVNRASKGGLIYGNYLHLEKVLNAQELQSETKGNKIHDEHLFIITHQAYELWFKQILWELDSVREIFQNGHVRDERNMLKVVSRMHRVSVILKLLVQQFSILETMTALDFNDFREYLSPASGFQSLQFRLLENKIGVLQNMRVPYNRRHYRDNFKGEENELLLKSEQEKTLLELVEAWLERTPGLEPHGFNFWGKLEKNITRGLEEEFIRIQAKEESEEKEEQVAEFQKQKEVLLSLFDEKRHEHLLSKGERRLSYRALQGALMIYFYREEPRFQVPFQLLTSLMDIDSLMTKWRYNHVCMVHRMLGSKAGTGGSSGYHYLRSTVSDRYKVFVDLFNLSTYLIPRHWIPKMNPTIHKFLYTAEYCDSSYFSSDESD
Summary of the method: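 N-His-tagged hTDO expressed in E. coli (125 ng) incubated with 200 μM L-tryptophan, 100 mM sodium phosphate pH 7.0, 0.01% Tween-20, 100 μM ascorbate, 60 min at 37 °C. Product converted with 200 mM piperidine (65 °C, 20 min) to NFK-PIP, fluorescence 400/500 nm; IC50 by nonlinear regression.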

Row | Structure (SMILES) | IC50 [1] [nM] | inhibition at 1 µM [1] [%] | inhibition at 10 µM [1] [%] | inhibition at 1 µM [2] [%] | inhibition at 10 µM [2] [%]
1 | CC1=C(c2ccccc2)C(CC(O)C2CCN(C(=O)OCc3ccccc3)CC2)n2cncc21 (stereo not shown) [Example 137, 4-[1-Hydroxy-2-(7-methyl-6-phenyl-5H-pyrrolo[1,2-c]imidazol-5-yl)-ethyl]-piperidine-1-carboxylic acid benzyl ester] | < 500 | ≥ 50 | ≥ 50 | ≥ 50 | –
2 | CC1=C(c2ccccc2)C(CC(=O)c2ccc(-c3ccccc3)cc2)n2cncc21 (stereo not shown) [Example 41, 1-([1,1′-biphenyl]-4-yl)-2-(7-methyl-6-phenyl-5H-pyrrolo[1,2-c]imidazol-5-yl)ethan-1-one] | < 500 | ≥ 50 | ≥ 50 | ≥ 50 | –
3 | CC1=C(c2ccccc2)C(CC(=O)C2CCN(Cc3ccccc3)CC2)n2cncc21 (stereo not shown) [Example 140] | – | ≤ 50 | ≤ 50 | ≤ 50 | –
4 | CC1=C(c2ccccc2)C(CC(O)c2cccc(Cl)c2)n2cncc21 (stereo not shown) [Example 19, 1-(3-Chloro-phenyl)-2-(7-methyl-6-phenyl-5H-pyrrolo[1,2-c]imidazol-5-yl)-ethanol] | < 500 | ≥ 50 | ≥ 50 | ≥ 50 | ≥ 50
5 | CC1=C(c2ccccc2)C(CC(O)c2ccc(-c3ccccc3)cc2)n2cncc21 (stereo not shown) [Example 44, 1-([1,1′-biphenyl]-4-yl)-2-(7-methyl-6-phenyl-5H-pyrrolo[1,2-c]imidazol-5-yl)ethan-1-ol] | – | ≥ 50 | ≥ 50 | ≥ 50 | –
6 | CC1=C(c2ccccc2)C(CC(=O)C2CCC(C(=O)O)CC2)n2cncc21 (stereo not shown) [Example 130] | – | ≤ 50 | ≤ 50 | ≤ 50 | –
7 | OC(CC1C2=C(CCCC2)c2cncn21)c1cccc(Cl)c1 (stereo not shown) [Example 4] | – | – | ≤ 50 | – | ≥ 50
8 | CC1=C(c2ccccc2)C(CC(=O)c2cccc(-c3ccccc3)c2)n2cncc21 (stereo not shown) [Example 69] | > 500 | ≥ 50 | ≥ 50 | ≤ 50 | –
9 | CC1=C(c2ccccc2)C(CC(O)C2CCN(C(=O)Nc3cccc(Cl)c3)CC2)n2cncc21 (stereo not shown) [Example 181] | < 500 | ≥ 50 | ≥ 50 | ≤ 50 | –
10 | CC1=C(c2ccccc2)C(CC(O)C2CCN(C(=O)c3ccccn3)CC2)n2cncc21 (stereo not shown) [Example 152] | > 500 | ≤ 50 | ≥ 50 | ≤ 50 | –
11 | CC1=C(c2ccccc2)C(CC(O)C2CCN(C(=O)c3cccnc3)CC2)n2cncc21 (stereo not shown) [Example 157] | > 500 | ≥ 50 | ≥ 50 | ≤ 50 | –
12 | CC1=C(c2ccccc2)C(CC(=O)c2ccc(C(=O)Nc3ccc(Cl)cc3)cc2)n2cncc21 (stereo not shown) [Example 80] | – | ≥ 50 | ≥ 50 | ≥ 50 | –
13 | CC1=C(c2ccccc2)C(CC(O)C2CCN(C(=O)c3ccncc3)CC2)n2cncc21 (stereo not shown) [Example 162] | – | ≤ 50 | ≥ 50 | ≤ 50 | –
14 | CC1=C(c2ccccc2)C(C[C@@H](O)C2CCCN2C(=O)c2ccccc2)n2cncc21 (stereo partly shown) [Example 116] | – | ≤ 50 | ≤ 50 | ≤ 50 | –
15 | CC1=C(c2ccccc2)C(CC(O)C2CCN(C(=O)C3CCCCC3)CC2)n2cncc21 (stereo not shown) [Example 149] | < 500 | ≥ 50 | ≥ 50 | ≤ 50 | –
16 | CC1=C(c2ccccc2)C(CC(=O)c2ccc(-c3ccc(F)cc3)cc2)n2cncc21 (stereo not shown) [Example 63] | – | ≥ 50 | ≥ 50 | ≥ 50 | –
17 | CC1=C(c2ccccc2)C(CC(O)C2CCN(C(=O)c3ccccc3)CC2)n2cncc21 (stereo not shown) [Example 144] | < 500 | ≥ 50 | ≥ 50 | ≤ 50 | –
18 | CC1=C(c2ccccc2)C(CC(=O)C2CCN(C(=O)C3CCCCC3)CC2)n2cncc21 (stereo not shown) [Example 147] | – | ≤ 50 | ≥ 50 | ≤ 50 | –
19 | CC1=C(c2ccccc2)C(CC(=O)C2CCC(C(=O)Nc3ccc(Cl)cc3C)CC2)n2cncc21 (stereo not shown) [Example 118] | – | ≥ 50 | ≥ 50 | ≥ 50 | –
20 | CC1=C(c2ccccc2)C(CC(=O)c2cccc(C(F)(F)F)c2)n2cncc21 (stereo not shown) [Example 29, 2-(7-Methyl-6-phenyl-5H-pyrrolo[1,2-c]imidazol-5-yl)-1-(3-trifluoromethyl-phenyl)-ethanone] | < 500 | ≥ 50 | ≥ 50 | ≥ 50 | ≥ 50
21 | CC1=C(c2ccccc2)C(CC(=O)C2CCN(C(=O)Cc3ccccc3F)CC2)n2cncc21 (stereo not shown) [Example 138, 2-(2-Fluorophenyl)-1-(4-(2-(7-methyl-6-phenyl-5H-pyrrolo[1,2-c]imidazol-5-yl)acetyl)piperidin-1-yl)ethan-1-one] | – | ≥ 50 | ≥ 50 | ≥ 50 | –
22 | CC1=C(c2ccccc2)C(C[C@H](O)C2CCC(C(=O)N3CCC(O)CC3)CC2)n2cncc21 (stereo partly shown) [Example 125] | – | ≥ 50 | ≥ 50 | ≤ 50 | –
23 | COC(=O)c1ccc(C(=O)CC2C(c3ccccc3)=C(C)c3cncn32)cc1 (single isomer, unassigned; isomer-i) [Example 71, 4-[2-(7-Methyl-6-phenyl-5H-pyrrolo[1,2-c]imidazol-5-yl)-acetyl]-benzoic acid methyl ester, Isomer-I] | < 500 | ≥ 50 | ≥ 50 | ≥ 50 | ≥ 50
24 | CC1=C(c2ccccc2)C(CC(=O)c2ccc(NC(=O)Cc3ccccc3F)cc2)n2cncc21 (stereo not shown) [Example 176, 2-(2-fluorophenyl)-N-(4-(2-(7-methyl-6-phenyl-5H-pyrrolo[1,2-c]imidazol-5-yl)acetyl)phenyl)acetamide] | < 500 | ≥ 50 | ≥ 50 | ≥ 50 | –
25 | CC1=C(c2ccccc2)C(CC(=O)C2CCC(C(=O)N3CCC(=O)CC3)CC2)n2cncc21 (stereo not shown) [Example 124] | – | ≤ 50 | ≥ 50 | ≤ 50 | –
26 | CC1=C(c2ccccc2)C(CC(O)C23CC4CC(CC(C4)C2)C3)n2cncc21 (stereo not shown) [Example 108] | – | ≥ 50 | ≥ 50 | ≥ 50 | –
27 | CC1=C(c2ccccc2)C(C[C@@H](O)C2CCCN2S(=O)(=O)c2ccc(C)cc2)n2cncc21 (stereo partly shown) [Example 114] | – | ≤ 50 | ≥ 50 | ≥ 50 | –
28 | CC1=C(c2ccccc2)C(CC(=O)c2ccc(-c3ccc(C)s3)cc2)n2cncc21 (stereo not shown) [Example 64] | < 500 | ≥ 50 | ≥ 50 | ≤ 50 | –
29 | CC1=C(c2ccccc2)C(C[C@H](O)C2CCC(C(=O)Nc3cccnc3)CC2)n2cncc21 (stereo partly shown) [Example 128] | < 500 | ≥ 50 | ≥ 50 | ≥ 50 | –
